Test results as given in the supplement of paper PMC5908809.

Legend:
NK-YS (IL-2 2.5 ng/mL) [1] = assay: drug sensitivity score (DSS) (DSS units); higher = more sensitive; extreme values may be limits of the assay; conditions: 72 h
[2] = tested on: normal primary NK cells, pool 2 (3 donors) (IL-2 2.5 ng/mL); assay: as above; conditions: 72 h
NK-92 (IL-2 2.5 ng/mL) [3] = assay: as above; conditions: 72 h
KAI3 (IL-2 2.5 ng/mL) [4] = assay: as above; conditions: 72 h
YT (IL-2 2.5 ng/mL) [5] = assay: as above; conditions: 72 h
[6] = tested on: normal primary NK cells, pool 1 (3 donors), resting (IL-2 0 ng/mL); assay: as above; conditions: 72 h
NKL (IL-2 2.5 ng/mL) [7] = assay: as above; conditions: 72 h
[8] = tested on: normal primary NK cells, pool 1 (3 donors) (IL-2 2.5 ng/mL); assay: as above; conditions: 72 h
[9] = tested on: normal primary NK cells, pool 3 (3 donors) (IL-2 2.5 ng/mL); assay: as above; conditions: 72 h
IMC-1 (IL-2 20 ng/mL) [10] = assay: as above; conditions: 72 h
SNK-6 (IL-2 2.5 ng/mL) [11] = assay: as above; conditions: 72 h
KHYG-1 (IL-2 2.5 ng/mL) [12] = assay: as above; conditions: 72 h
DERL-7 (IL-2 2.5 ng/mL) [13] = assay: as above; conditions: 72 h
[14] = tested on: normal NK cells expanded with K562-aAPC; assay: as above; conditions: 72 h; IL-2 2.5 ng/mL
Method: (§1)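 Drug sensitivity and resistance testing on K562-aAPC-expanded normal NK cells: 5 concentrations (10-fold steps over a 10,000-fold range), 72 h at 37 °C, viability by CellTiter-Glo normalised to DMSO and benzethonium chloride controls; DSS from the fitted curve.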

NK-YS (IL-2 2.5 ng/mL) [15] = assay: percent inhibition of viability; higher = more inhibition; conditions: 72 h
[16] = tested on: normal primary NK cells, pool 2 (3 donors) (IL-2 2.5 ng/mL); assay: as above; conditions: 72 h
NK-92 (IL-2 2.5 ng/mL) [17] = assay: as above; conditions: 72 h
KAI3 (IL-2 2.5 ng/mL) [18] = assay: as above; conditions: 72 h
YT (IL-2 2.5 ng/mL) [19] = assay: as above; conditions: 72 h
[20] = tested on: normal primary NK cells, pool 1 (3 donors), resting (IL-2 0 ng/mL); assay: as above; conditions: 72 h
NKL (IL-2 2.5 ng/mL) [21] = assay: as above; conditions: 72 h
[22] = tested on: normal primary NK cells, pool 1 (3 donors) (IL-2 2.5 ng/mL); assay: as above; conditions: 72 h
[23] = tested on: normal primary NK cells, pool 3 (3 donors) (IL-2 2.5 ng/mL); assay: as above; conditions: 72 h
IMC-1 (IL-2 20 ng/mL) [24] = assay: as above; conditions: 72 h
SNK-6 (IL-2 2.5 ng/mL) [25] = assay: as above; conditions: 72 h
KHYG-1 (IL-2 2.5 ng/mL) [26] = assay: as above; conditions: 72 h
DERL-7 (IL-2 2.5 ng/mL) [27] = assay: as above; conditions: 72 h
[28] = tested on: normal NK cells expanded with K562-aAPC; assay: as above; conditions: 72 h, IL-2 2.5 ng/mL
Method: as §1

NC(=O)c1ccc(I)c([N+](=O)[O-])c1 [Iniparib] (max concentration tested 10000 nM)
Conditions | drug sensitivity score
DERL-7 (IL-2 2.5 ng/mL) [13] | 1.1
IMC-1 (IL-2 20 ng/mL) [10] | 0
KAI3 (IL-2 2.5 ng/mL) [4] | 0
KHYG-1 (IL-2 2.5 ng/mL) [12] | 0
NK-92 (IL-2 2.5 ng/mL) [3] | 0
NK-YS (IL-2 2.5 ng/mL) [1] | 0
NKL (IL-2 2.5 ng/mL) [7] | 0
SNK-6 (IL-2 2.5 ng/mL) [11] | 2.01
YT (IL-2 2.5 ng/mL) [5] | 0
[2] | 1.31
[6] | 7.97
[8] | 4.84
[9] | 0.46
[14] | 0.24

percent inhibition of viability [%]
Conditions | 1 nM | 10 nM | 100 nM | 1000 nM | 10000 nM
DERL-7 (IL-2 2.5 ng/mL) [27] | -3.85 | -2.44 | 3.9 | -0.89 | 28.1
IMC-1 (IL-2 20 ng/mL) [24] | 2.82 | 5.28 | 4.37 | 4.53 | -3.7
KAI3 (IL-2 2.5 ng/mL) [18] | 11.4 | 8.8 | 12.9 | 11.2 | 19
KHYG-1 (IL-2 2.5 ng/mL) [26] | -2.79 | -0.73 | -1.94 | 0.34 | 2.04
NK-92 (IL-2 2.5 ng/mL) [17] | 8.25 | 4.1 | 12.8 | 3.36 | 7.28
NK-YS (IL-2 2.5 ng/mL) [15] | -0.99 | 0.64 | -4.34 | -1.33 | -4.16
NKL (IL-2 2.5 ng/mL) [21] | -0.1 | 1.47 | 0.26 | -4.81 | -5.47
SNK-6 (IL-2 2.5 ng/mL) [25] | 2.09 | 3.24 | 11.9 | 10.5 | 23.6
YT (IL-2 2.5 ng/mL) [19] | 7.63 | 6.75 | 4.79 | 6.7 | 5.3
[16] | -8.36 | -7.08 | 1.43 | -0.1 | 30.1
[20] | -2.43 | -4.44 | -6.4 | 24.9 | 78.9
[22] | 8.54 | 2.74 | 4.22 | 12.3 | 53.8
[23] | -1.14 | -4.93 | 1.99 | -1.49 | 19.3
[28] | 7.03 | 0.05 | 0.33 | 1.63 | 13.4

CCc1c2c(nc3ccc(OC(=O)N4CCC(N5CCCCC5)CC4)cc13)-c1cc3c(c(=O)n1C2)COC(=O)[C@]3(O)CC [Irinotecan] (max concentration tested 10000 nM)
Conditions | drug sensitivity score
DERL-7 (IL-2 2.5 ng/mL) [13] | 13.6
IMC-1 (IL-2 20 ng/mL) [10] | 17.4
KAI3 (IL-2 2.5 ng/mL) [4] | 19.5
KHYG-1 (IL-2 2.5 ng/mL) [12] | 21.9
NK-92 (IL-2 2.5 ng/mL) [3] | 22.4
NK-YS (IL-2 2.5 ng/mL) [1] | 18.3
NKL (IL-2 2.5 ng/mL) [7] | 25.6
SNK-6 (IL-2 2.5 ng/mL) [11] | 18.7
YT (IL-2 2.5 ng/mL) [5] | 14.6
[2] | 1.23
[6] | 0
[8] | 0.5
[9] | 2.6
[14] | 8.77

percent inhibition of viability [%]
Conditions | 1 nM | 10 nM | 100 nM | 1000 nM | 10000 nM
DERL-7 (IL-2 2.5 ng/mL) [27] | -4.74 | 4.74 | 6.64 | 65.6 | 96.7
IMC-1 (IL-2 20 ng/mL) [24] | -2.65 | -6.08 | 0 | 95.8 | 99.6
KAI3 (IL-2 2.5 ng/mL) [18] | 16.1 | 10.6 | 29.7 | 88.8 | 84.8
KHYG-1 (IL-2 2.5 ng/mL) [26] | 0.37 | -3.33 | 25.7 | 104 | 109
NK-92 (IL-2 2.5 ng/mL) [17] | 0.95 | -2.29 | 30 | 104 | 109
NK-YS (IL-2 2.5 ng/mL) [15] | -7.5 | -7.35 | 7.27 | 94.2 | 98.5
NKL (IL-2 2.5 ng/mL) [21] | -2.62 | 5.5 | 62.6 | 105 | 108
SNK-6 (IL-2 2.5 ng/mL) [25] | 18.2 | -16.5 | 10.3 | 93.8 | 98.5
YT (IL-2 2.5 ng/mL) [19] | -5.37 | -7.93 | 2.4 | 78.1 | 108
[16] | 1.46 | 0.89 | 3.4 | 10 | 20.8
[20] | 4.36 | 9.89 | 22.8 | 2.26 | -9.62
[22] | -8.27 | 6.89 | -1.05 | 3.55 | 14.4
[23] | 3.5 | 8.16 | 16.4 | 10.7 | 17.2
[28] | -0.14 | -0.75 | 0.82 | 45.8 | 61
